The values that follow come from patent US7438931B2, “Methods and compositions for the treatment of angiogenic diseases” (The Regents of The University of Michigan, priority 1998, dated 2008).

Data set [1] deals with copper. Conditions: at a cupruresis of 2-3 mg.
The subject of data set [2] is copper. The conditions noted are these: cited from earlier work.
The conditions of data set [3]: cited from earlier work.
The conditions of data set [4]: human, in vivo; cited from earlier work.
Data set [5] deals with rabbit VX2 carcinoma and rat 9L gliosarcoma. Conditions: implanted intracerebral tumors; cited from earlier work.
In data set [6] the test system is copper absorption. The conditions noted are these: cited from earlier work.
Setting [7] is: therapeutic dose 1,000-2,000 mg/day.

In turn, `NCCNCCNCCN` [trientine] gave a negative copper balance in data set [1] of 1.5 to 2.5 mg/day. Also, in data set [2] (after several weeks of use), the patients with proteinuria result is “about 20 % of patients”. In data set [2] (setting [7]), the “cupruresis after the first few weeks of therapy” value was 2 to 3 mg and the “cupruresis, initial” value is 4 to 5 mg.

On to `[Mo]` [Mo, molybdenum], for which the efficacy entry in data set [3] (5-20 mg/kg/day of Mo for 4-11 months) is reported as “not effective”. The toxicity entry in data set [3] (350 to 1400 mg/day (5-20 mg/kg/day) of Mo for 4-11 months) is “without known toxicity”.

With `CC(C)(S)[C@@H](N)C(=O)O` [penicillamine], the “patients developing an initial hypersensitivity syndrome” value in data set [4] is “a quarter to a third of patients”. Further, the survival result in data set [5] is “did not show improved survival over untreated controls”.

In the case of `[Zn]` [zinc], the toxicity result in data set [6] (150 mg daily, 200 Wilson's disease patients) is “no toxicity at all”. Further, in data set [6] (at the two week point), the “copper balance, average” value is −0.35 mg daily. In data set [6] (human, in vivo), the “time to bring urine copper and nonceruloplasmin plasma copper down to subtoxic levels” value is given as “as long as six months”; the “time to intestinal metallothionein induction and a negative copper balance” value is “approximately two weeks”.
